Assays:
Format in all cases: cell-based
IL6 [1] = assay: R848 stimulated IL6 inhibition assay in PBMC; settings: PBMC, human PBMCs, R848 stimulation, compound overnight, IL6 by MSD after 24 hrs; for Dmax: Homo sapiens, 24 h, read-out: R848 stim IL6 inhibition Dmax; for IC50: read-out: R848 stim IL6 inhibition IC50
Method in brief: (§1)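 Seed human PBMC, 2.0×10^6 cells/mL → compound overnight → stimulant (IL-1β, LPS or R848) at per-donor EC50 → 24 hrs → media to MSD for IL6/IL8.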

IL6 [2] = assay: LPS stimulated IL6 inhibition assay in PBMC; settings: Homo sapiens, PBMC, 24 h, human PBMCs, LPS stimulation, compound overnight, IL6 by MSD after 24 hrs; for Dmax: read-out: LPS Stim IL6 inhibition Dmax; for IC50: read-out: LPS stim IL6 inhibition IC50
Method in brief: as §1

IRAK-4 = biological target: T1, IRAK-4 (Homo sapiens, UniProt Q9NWZ3); assay: IRAK-4 ELISA, PBMC degradation; set-up: endogenous in cells; host or cells: PBMC; settings: treated overnight
T1 sequence (Q9NWZ3 1-460): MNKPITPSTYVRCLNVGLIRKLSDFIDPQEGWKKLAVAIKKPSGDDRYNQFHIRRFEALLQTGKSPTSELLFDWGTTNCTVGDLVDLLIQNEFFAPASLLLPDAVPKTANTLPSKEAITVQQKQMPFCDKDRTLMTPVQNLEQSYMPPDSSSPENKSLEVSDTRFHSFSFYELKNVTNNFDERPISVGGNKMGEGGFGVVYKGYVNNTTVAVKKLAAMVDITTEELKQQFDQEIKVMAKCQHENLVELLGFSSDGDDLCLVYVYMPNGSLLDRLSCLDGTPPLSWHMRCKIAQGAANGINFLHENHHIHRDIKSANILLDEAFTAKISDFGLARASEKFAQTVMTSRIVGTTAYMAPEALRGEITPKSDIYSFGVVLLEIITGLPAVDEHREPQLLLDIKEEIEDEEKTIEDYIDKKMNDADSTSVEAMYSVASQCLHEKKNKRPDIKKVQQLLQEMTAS
Method in brief: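 Readout: IRAK-4 protein level in cell lysate, sandwich ELISA. Cells: OCI-Ly10 at 1×10^6/ml or PBMC at 2×10^6/ml, compound added same day, overnight incubation.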

Structure (SMILES)	Dmax (IL6 [1]) [%]	IC50 (IL6 [1]) [µM]	Dmax (IL6 [2]) [%]	IC50 (IL6 [2]) [µM]	DC50 (IRAK-4) [µM]	Dmax (IRAK-4) [%]	PBMC DC90 (IRAK-4)
CC(C)Oc1cc2c(cc1NC(=O)c1cnn3cccnc13)CN(C1CCN(CC3CCN(c4ccc(F)c(C(=O)NC5CCC(=O)NC5=O)c4)CC3)CC1)C2=O (centres unmarked) [Example 303]	≥ 90	0.01 to 0.05	70 to 80	0.01 to 0.05	0.005 to 0.01	80 to 90	C (C represents a DC90 value ≥25.0 nM and <50 nM)
O=C1CCC(NC(=O)c2ccc(N3CCC(CN4CCC(N5Cc6cc(NC(=O)c7cnn8cccnc78)c(OCC(F)F)cc6C5=O)CC4)CC3)cc2F)C(=O)N1 (centres unmarked) [Example 305]	< 70	0.05 to 0.1	< 70	0.01 to 0.05	0.005 to 0.01	80 to 90	C (C represents a DC90 value ≥25.0 nM and <50 nM)
O=C1CCC(NC(=O)c2cc(N3CC(CN4CCC(n5cc6cc(NC(=O)c7cnn8cccnc78)c(OCC7CC7)cc6n5)CC4)C3)ccc2F)C(=O)N1 (centres unmarked) [Example 306]	≥ 90	≥ 0.1	70 to 80	≥ 0.1	≥ 0.01	70 to 80	D (D represents a DC90 value ≥50 nM)
CC(C)Oc1cc2nn(C3CCN(CC4CN(c5ccc(F)c(C(=O)NC6CCC(=O)NC6=O)c5)C4)CC3)cc2cc1NC(=O)c1cnn2cccnc12 (centres unmarked) [Example 307]	80 to 90	≥ 0.1	–	≥ 0.1	≥ 0.01	–	D (D represents a DC90 value ≥50 nM)
CC(C)Oc1nc2c(cc1NC(=O)c1cnn3cccnc13)CN(C1CCN(CC3CCN(c4ccc(C(=O)NC5CCC(=O)NC5=O)c(F)c4)CC3)CC1)C2=O (centres unmarked) [Example 309]	80 to 90	0.01 to 0.05	< 70	0.01 to 0.05	0.001 to 0.005	≥ 90	B (B represents a DC90 value ≥10.0 nM and <25.0 nM)
O=C1CCC(NC(=O)c2ccc(N3CCC(CN4CCC(N5Cc6cc(NC(=O)c7cnn8cccnc78)c(N7CCC(N8CCC8)CC7)cc6C5=O)CC4)CC3)cc2F)C(=O)N1 (centres unmarked) [Example 310]	≥ 90	0.05 to 0.1	70 to 80	≥ 0.1	0.001 to 0.005	≥ 90	A (A represents a DC90 value <10.0 nM)
CC(C)Oc1cc2c(cc1NC(=O)c1cnn3cccnc13)CN(C1CCN(C(C)(C)C3CN(c4ccc(F)c(C(=O)NC5CCC(=O)NC5=O)c4)C3)CC1)C2=O (centres unmarked) [Example 311]	≥ 90	0.01 to 0.05	70 to 80	≥ 0.1	0.005 to 0.01	80 to 90	D (D represents a DC90 value ≥50 nM)
CC(C)Oc1cc2c(cc1NC(=O)c1cnn3cccnc13)CN(C1CCN(C(C)(C)C3CN(c4ccc(C(=O)NC5CCC(=O)NC5=O)c(F)c4)C3)CC1)C2=O (centres unmarked) [Example 312]	≥ 90	< 0.01	≥ 90	0.01 to 0.05	0.001 to 0.005	≥ 90	A (A represents a DC90 value <10.0 nM)
Cn1c(=O)n(C2CCC(=O)NC2=O)c2cccc(N3CC(N(C)[C@H]4CC[C@H](n5cc6cc(NC(=O)c7cnn8cccnc78)c(OCC7CC7)cc6n5)CC4)C3)c21 (some centres unmarked) [Example 346]	≥ 90	0.01 to 0.05	80 to 90	< 0.01	0.001 to 0.005	80 to 90	B (B represents a DC90 value ≥10.0 nM and <25.0 nM)
O=C1CCC(N2C(=O)c3ccc(N4CCC5(CC4)CN([C@H]4CC[C@H](n6cc7cc(NC(=O)c8cnn9cccnc89)c(OCC8CC8)cc7n6)CC4)C5)cc3C2=O)C(=O)N1 (some centres unmarked) [Example 353]	≥ 90	0.01 to 0.05	70 to 80	0.01 to 0.05	0.001 to 0.005	80 to 90	B (B represents a DC90 value ≥10.0 nM and <25.0 nM)
CN(CC1CCN(c2ccc3c(c2)C(=O)N(C2CCC(=O)NC2=O)C3=O)CC1)[C@H]1CC[C@H](n2cc3cc(NC(=O)c4cnn5cccnc45)c(OCC(F)F)cc3n2)CC1 (some centres unmarked) [Example 357]	≥ 90	< 0.01	≥ 90	< 0.01	< 0.001	70 to 80	A (A represents a DC90 value <10.0 nM)
CN(C1CCN(c2ccc3c(c2)C(=O)N(C2CCC(=O)NC2=O)C3=O)CC1)[C@H]1CC[C@H](n2cc3cc(NC(=O)c4cnn5cccnc45)c(OCC(F)F)cc3n2)CC1 (some centres unmarked) [Example 358]	≥ 90	< 0.01	70 to 80	< 0.01	< 0.001	< 70	A (A represents a DC90 value <10.0 nM)
CN(CCN1CCN(c2ccc3c(c2)C(=O)N(C2CCC(=O)NC2=O)C3=O)CC1)[C@H]1CC[C@H](n2cc3cc(NC(=O)c4cnn5cccnc45)c(OCC4CC4)cc3n2)CC1 (some centres unmarked) [Example 359]	≥ 90	< 0.01	80 to 90	< 0.01	< 0.001	80 to 90	A (A represents a DC90 value <10.0 nM)
O=C1CCC(N2C(=O)c3ccc(N4CC5(C4)CN([C@H]4CC[C@H](n6cc7cc(NC(=O)c8cnn9cccnc89)c(OCC8CC8)cc7n6)CC4)C5)cc3C2=O)C(=O)N1 (some centres unmarked) [Example 360]	≥ 90	< 0.01	80 to 90	< 0.01	0.001 to 0.005	≥ 90	B (B represents a DC90 value ≥10.0 nM and <25.0 nM)
CN(C1CN(c2ccc3c(c2F)CN(C2CCC(=O)NC2=O)C3=O)C1)[C@H]1CC[C@H](n2cc3cc(NC(=O)c4cnn5cccnc45)c(OCC4CC4)cc3n2)CC1 (some centres unmarked) [Example 361]	≥ 90	< 0.01	80 to 90	< 0.01	< 0.001	≥ 90	A (A represents a DC90 value <10.0 nM)
CN(C1CN(c2ccc3c(c2F)CN(C2CCC(=O)NC2=O)C3=O)C1)[C@H]1CC[C@H](n2cc3cc(NC(=O)c4cnn5cccnc45)c(OCC(F)F)cc3n2)CC1 (some centres unmarked) [Example 362]	≥ 90	< 0.01	70 to 80	0.01 to 0.05	< 0.001	≥ 90	A (A represents a DC90 value <10.0 nM)
CN(C1CN(c2ccc3c(c2)CN(C2CCC(=O)NC2=O)C3=O)C1)[C@H]1CC[C@H](n2cc3cc(NC(=O)c4cnn5cccnc45)c(OCC(F)F)cc3n2)CC1 (some centres unmarked) [Example 363]	≥ 90	0.01 to 0.05	70 to 80	0.01 to 0.05	< 0.001	≥ 90	A (A represents a DC90 value <10.0 nM)
CC(C)Oc1cc2c(cc1NC(=O)c1cnn3cccnc13)CN([C@H]1CC[C@H](N(C)C3CN(c4ccc5c(c4F)CN(C4CCC(=O)NC4=O)C5=O)C3)CC1)C2=O (some centres unmarked) [Example 364]	≥ 90	< 0.01	< 70	0.05 to 0.1	0.001 to 0.005	≥ 90	A (A represents a DC90 value <10.0 nM)
CC(C)Oc1cc2c(cc1NC(=O)c1cnn3cccnc13)CN([C@H]1CC[C@H](N(C)CC3(F)CN(c4ccc5c(c4)C(=O)N(C4CCC(=O)NC4=O)C5=O)C3)CC1)C2=O (some centres unmarked) [Example 365]	≥ 90	0.01 to 0.05	< 70	< 0.01	0.001 to 0.005	≥ 90	A (A represents a DC90 value <10.0 nM)
CC(C)Oc1cc2c(cc1NC(=O)c1cnn3cccnc13)CN([C@H]1CC[C@H](N3CC4(CN(c5ccc6c(c5)C(=O)N(C5CCC(=O)NC5=O)C6=O)C4)C3)CC1)C2=O (some centres unmarked) [Example 366]	≥ 90	< 0.01	80 to 90	< 0.01	0.001 to 0.005	≥ 90	A (A represents a DC90 value <10.0 nM)
O=C1CCC(N2Cc3c(cccc3N3CC4(CCCN(C5CCC(n6cc7cc(NC(=O)c8cnn9cccnc89)c(OCC8CC8)cc7n6)CC5)C4)C3)C2=O)C(=O)N1 (centres unmarked) [Example 367]	≥ 90	0.01 to 0.05	80 to 90	0.01 to 0.05	≥ 0.01	80 to 90	D (D represents a DC90 value ≥50 nM)
CN(C1CN(c2ccc(C(=O)NC3CCC(=O)NC3=O)c(F)c2)C1)[C@H]1CC[C@H](n2cc3cc(NC(=O)c4cnn5cccnc45)c(OCC4CC4)cc3n2)CC1 (some centres unmarked) [Example 368]	≥ 90	0.01 to 0.05	70 to 80	0.01 to 0.05	0.001 to 0.005	≥ 90	A (A represents a DC90 value <10.0 nM)

Source: patent US20230099344A1, “COMPOUNDS AND METHODS FOR THE TARGETED DEGRADATION OF IRAK-4” (Arvinas Operations, Inc., priority 2021, published 2023)
